# Test results reported in US4743614A, “Amino acid derivatives and processes for preparation thereof” (Fujisawa Pharmaceutical Co., Ltd., priority 1985, dated 1988).
# Columns and labels:
# [1] = tested on: colony forming abilities of bone marrow cells (CFU-c); test: Restorative effect on suppressed colony forming abilities of bone marrow cells in immunodeficient hosts (mitomycin C-treated mice); format: in vivo, BDF1 mice; details: mitomycin C 1 mg/kg for 2 days, day 9, n = 7-9, **P < 0.01
# Method: Restorative effect on suppressed colony forming abilities of bone marrow cells in immunodeficient hosts: BDF1 mice (female, 8 weeks aged) were obtained from Shizuoka Agricultural Cooperative Association for Laboratory Animal, Hamamatsu, Japan. The mice were intraperitoneally injected with mitomycin C (1 mg/kg) every day for 2 days and FR-900490 was also administered to mice intraperitoneally every day for 5 days. At 9th day after first administration of mitomycin C, mice were sacrificed and the colony forming abilities of bone marrow cells (CFU-c) were measured. The schedule of the above test is shown below. [drawing 6] Femoral marrow was harvested from mice by flushing the bone cavity with α-Minimum Essential Medium (α-MEM) supplemented with penicillin G (100 units/ml), streptomycin (100 μg/ml) and 5% fetal bovine serum (FBS). The bone marrow cells were pelleted by centrifugation (500×g, 10 minutes) and resuspended in enriched α-MEM. Mononuclear cells were counted in a hemocytometer and the cells were diluted to 1 ×10^5 cells/ml. Then, 1 ml of bone marrow cells, 1 ml of FBS, 2 ml of 2.2% methyl cellulose in α-MEM and 1 ml of L-929 cell conditioned medium were added to a sterilized tube and mixed by use of automatic mixer. One ml of mixture was plated in 35 mm plastic petri dish and incubated for 7 days in a fully humidified atmosphere of 5% CO2 in air. Triplicate plates were prepared for each experiment. Colonies composed of 50 or more cells were scored on an inverted microscope.
# B-16 melanoma = test: Inhibitory activity for tumor metastasis; format: in vivo, BDF1 mice; details: 14th day after B-16 melanoma injection, n = 10, **P < 0.01
# Method: Inhibitory activity for tumor metastasis
# B-16 Melanoma cells were grown in a Roswel park memorial Institute (RPMI)-1640 medium supplemented with penicillin G (100 units/ml), streptomycin (100 μg/ml) and 10% FBS to subsconfiluency, and the monolayers were rinsed with an aqueous solution of trypsin. Hanks' balanced salt (HBS) solution (Ca-Mg-free) containing the antibiotics described above was added to the monolayers and the monolayer was dislodged by gentle pipetting, and the cells were washed with HBS solution containing the antibiotics described above by centrifugation. The cells were resuspended in HBS solution containing the antibiotics described above and kept at cold temperature. BDF1 mice (female, 8 weeks aged) were injected intravenously with 2×10^5 cells of B-16 melanoma in 0.2 ml of HBS solution containing the antibiotics described above. FR-900490 was intraperitoneally administered once a day at one day and two days before and at one day and four days after the injection of B-16 melanoma. At 14th day after injection of B-16 melanoma, the mice were killed, and the lungs were removed, rinsed in distilled water containing heparin and the number of tumor foci was determined by counting the surface colonies under a dissecting microscope.
# The schedule of the above test is shown. [drawing 7]
# [2] = tested on: direct plaque forming cells (PFC-SRBC); test: Restorative effect on suppressed antibody forming abilities in immunodeficient hosts; format: in vivo, BDF1 mice
# Method: Restorative Effect on Suppressed Antibody Forming Abilities in Immunodeficient Hosts
# BDF1 mice (female, 8 weeks aged) were injected intraperitoneally with Mitomycin C (1 mg/kg) from four days before immunization with 5×10^8 Sheep Red Blood Cells (SRBC), every day for three days. Test samples also were administered to mice intraperitoneally from four days before immunization, every day for five days. At day 9, mice were sacrificed and the number of direct plaque forming cells per spleen (PFC-SRBC/spleen) was measured by using Cunningham modification method.
# The schedule of the above test is shown. [drawing 8]
# Solubility = format: physicochemical
compound,measurement,setting,value
"C[C@@H](N[C@@H](Cc1c[nH]cn1)C(=O)O)[C@H](NC(=O)[C@@H](N)CC(N)=O)C(=O)O [FR-900490, (2S,3R)-2-[[(2S)-2-amino-3-carbamoylpropionyl]amino]-3-[[(1S)-1-carboxy-2-(4-imidazolyl)ethyl]amino]butyric acid]",CFU-c (mean ± SE),[1]; 1 mg/kg i.p. every day for 5 days,59.3 ± 2.86
same,CFU-c (mean ± SE),[1]; 10 mg/kg i.p. every day for 5 days,70.4 ± 6.9
same,CFU-c (mean ± SE),[1]; 100 mg/kg i.p. every day for 5 days,57.2 ± 2.51
same,No. of colonies on the lung mean ± SE,B-16 melanoma; 1 mg/kg i.p.,39.7 ± 6.4
same,No. of colonies on the lung mean ± SE,B-16 melanoma; 10 mg/kg i.p.,23.4 ± 3.3
same,No. of colonies on the lung mean ± SE,B-16 melanoma; 100 mg/kg i.p.,77.9 ± 27.4
same,PFC-SRBC/spleen (average number of 5 mice/group),"[2]; 3 mg/kg i.p., mitomycin C-treated",14.96 × 10^4 PFC-SRBC/spleen
same,PFC-SRBC/spleen (average number of 5 mice/group),"[2]; 10 mg/kg i.p., mitomycin C-treated",17.49 × 10^4 PFC-SRBC/spleen
same,PFC-SRBC/spleen (average number of 5 mice/group),"[2]; 30 mg/kg i.p., mitomycin C-treated",16.30 × 10^4 PFC-SRBC/spleen
same,PFC-SRBC/spleen (average number of 5 mice/group),"[2]; 100 mg/kg i.p., animals not administered mitomycin C",16.83 × 10^4 PFC-SRBC/spleen
same,PFC-SRBC/spleen (average number of 5 mice/group),"[2]; 100 mg/kg i.p., mitomycin C-treated",21.12 × 10^4 PFC-SRBC/spleen
same,Solubility,Solubility; Ethyl acetate,Insoluble
same,Solubility,Solubility; Methanol,Sparingly soluble
same,Solubility,Solubility; Water,Soluble
same,Solubility,Solubility; acetone,Insoluble
same,Solubility,Solubility; chloroform,Insoluble
same,Solubility,Solubility; ethanol,Sparingly soluble
